In a melting point compilation (Tetko et al.; mined from patent text by program, amines drawn as free bases though some values may be those of a salt):

Compound	melting point
CC1C(=O)CC(C)C(C#N)C1=O (stereo not given)	178 to 179 °C
Fc1ccc(C2Cc3cnc(NCCCN4CCCCC4)nc3-c3ccccc32)cc1 (stereo not given)	60 to 62 °C
CN1CCN(c2ccc(C(=O)NC3CCCNC(=O)C3)cc2)CC1 (stereo not given)	232 to 234 °C
Nc1cccc(-c2ccc(CCN3CCN(C(=O)Oc4ccccc4)CC3)cc2)n1	102 to 104 °C
COc1ccc(S(=O)(=O)C2(C(=O)NO)CCCC2)cc1	89 to 91 °C
CC1(C)C2CCC1(CS(=O)(=O)NCCC1CCc3ccccc31)C(=O)C2 (stereo not given)	52 to 70 °C
O=C(c1ccc([N+](=O)[O-])cc1)c1ccc2[nH]c(=O)cc(-c3cccc(Cl)c3)c2c1	227 °C
Cn1cnc(C(N)=O)c1NC(=S)NC(=O)c1ccccc1	194 to 196 °C
CC1=C(C(=O)OCCN(C)Cc2ccccc2)C(c2cccc3ncc(-c4ccc(C)cc4)cc23)C2=C(COC2=O)N1 (stereo not given)	173 to 175 °C
CCCCCCCCCCCCCCCCNc1ccc(C(=O)OCC(COC(C)=O)OC(C)=O)cc1 (stereo not given)	68 °C
Cc1ccc(OC(C(=O)OC2CC(O)C=C3C=CC(C)C(CCC4CC(O)CC(=O)O4)C32)c2ccccc2)cc1 (mixture of isomers)	130 to 133 °C
Cc1ccsc1-n1ncc(-c2ccc(S(C)(=O)=O)cc2)c(-c2ccc(F)cc2)c1=O	215 to 217 °C
O=C(O)c1ccccc1C(=O)OC1CCN(c2cc(-c3ccccc3)nc(-c3ccccc3)n2)CC1	96 to 98 °C
COc1cc2nc(N3CCc4ccc(N)cc4C3)nc(N)c2cc1OC	265 to 266 °C
CCCCN(C(=O)C1CC1)c1nnc(C)s1	82 to 84 °C
CN1C2=C(CSC2)C(=O)Nc2cc(Cl)c(Cl)cc21	281 to 283 °C
CCCCCCC(O)Cn1ccnc1 (stereo not given)	44 to 45.5 °C
Cc1ccccc1-n1cnnc1C(F)(F)F	75 °C
Cc1cc(O)c(S(=O)CC(C)C)c(=O)o1 (stereo not given)	102 to 103 °C
CCCCCCCCCCOc1ccc(-c2ccc(CCCCC(C)O)cc2)cc1 (stereo not given)	92 to 93 °C
Cn1cnc2nc(Oc3ccccc3)nn2c1=S	209 to 211 °C
Clc1nc2cc3c(cc2s1)OCO3	131 to 132 °C
COc1cc(C(=N)N)ccc1O	> 240 °C
Nc1cc(Cl)c(Br)c(Cl)c1	132 °C
CN(C)C1CCN(S(=O)(=O)c2cc(C#N)ccc2Sc2cc(Cl)ccc2Cl)CC1	140 to 143 °C

Compound	melting point
CC1C=CC=CN2C3=C(C(=O)CCC3)N(C(=O)Nc3ccccc3F)C12 (stereo not given)	139 to 141 °C
O=C(c1c[nH]c2cc(C(F)(F)F)ccc12)C(F)(F)F	250 to 251 °C
CCN1CCN(c2ccc(C(=O)NCCCCCCCCCCCCO)cn2)CC1	108 to 110 °C
Cc1c(-c2ccccc2)oc2c(NC(=O)C(F)(F)F)cccc2c1=O	175 to 176 °C
O=S(=O)(c1ccccc1)n1cc(CCOC2OC(CO)CC(O)C2O)c2ccccc21 (stereo not given)	64 to 65 °C
Fc1ccccc1C1CCC(=S)Nc2ccc(Cl)cc21 (stereo not given)	190 °C
N#Cc1cccc2nnsc12	114 to 117 °C
CSc1cn(C)c2cc(C)sc2c1=O	139 to 142 °C
COc1ccc(C2(C)CCC(=O)O2)cc1OC (stereo not given)	71.2 °C
CC(=O)NC1(C#N)CC(C)(C)NC(C)(C)C1	153 to 160 °C
CCCCS(=O)(=O)C1CC(=O)N1CC(=O)CCc1ccccc1 (stereo not given)	93 to 94 °C
CC(=O)Oc1coc(-c2cccc([N+](=O)[O-])c2)cc1=O	170 to 171 °C
COc1cccc(C(=O)Nc2ccc(S(N)(=O)=O)cc2)c1SSc1c(OC)cccc1C(=O)Nc1ccc(S(N)(=O)=O)cc1	188 to 189 °C
Cc1cc(NS(=O)(=O)c2ccccc2)cc(C)c1S(=O)C[N+](=O)[O-] (stereo not given)	> 50 °C
CN1CC(C(O)C(O)C(O)CO)OC1=C(C#N)C=C1Nc2ccccc2C1=O (stereo not given)	237 °C
CC(C)(S)CN1CCN(c2ccc(C#N)cc2)CC1	92 to 94 °C
CCNC(=S)Nc1cc(F)ccc1C	93 to 95 °C
CCC1(CC(=O)O)OCCc2c1[nH]c1ccccc21 (stereo not given)	135 to 136 °C
CCOC(=O)CNC(=O)c1cccc(Cl)c1	70 to 72 °C
O=C(N[C@H](Cc1ccc(C(F)(F)F)cc1)[C@@H](O)c1cccc2ccccc12)c1ccc2ccccc2c1 (racemic)	251 to 252 °C
CCOc1ccc(C(c2ccc(C(C)(C)C)cc2)C(C)Cl)cc1 (stereo not given)	74 to 75 °C
CCc1ccc(C(=O)c2cccc(F)c2)c(O)c1	0 to 20 °C
CCNC(=O)c1c(OC(C)(C)C)ccc2ccccc12	126 to 127 °C
CN1CCC(=C2c3ccccc3C=C(Br)c3ccccc32)CC1	127 to 129 °C
O=C(NCc1ccc(Cl)cc1)c1cc(F)c2cccnc2c1O	184 to 185 °C
